Results: patent US9551722B2, “Amyloid binding agents” (The Regents of the University of California, priority 2009, dated 2017)

Key:
[1] = biological target: T1, interaction of the aggregated Aβ peptide with a monoclonal anti-Aβ IgG (Homo sapiens, UniProt P05067); experiment: Semi-quantitative ELISA: inhibition of IgG-Aβ fibril interactions; type: binding; settings: anti-Aβ IgG clone 6E10
T1 construct: Aggregated Aβ peptides were generated from synthetic Aβ(1-42) peptides
Protocol: The association of the synthesized compounds with aggregated Aβ peptides was tested using a semi-quantitative ELISA based assay developed by Yang and co-workers. See P. Inbar, J. Yang, Bioorg. Med. Chem. Lett. 2006, 16:1076-1079; P. Inbar, C. Q. Li, S. A. Takayama, M. R. Bautista, J. Yang, ChemBioChem 2006, 7:1563-1566; P. Inbar, M. R. Bautista, S. A. Takayama, J. Yang, Anal. Chem. 2008, 80:3502-3506. The assay is based on screening for molecules that inhibit the interaction of the aggregated Aβ peptide with a monoclonal anti-Aβ IgG raised against residues 1-17 of Aβ. Table 4 provides the concentrations of the compounds corresponding to 50% inhibition (IC50) of the IgG-Aβ interactions as well as the maximal percentage of the IgG's inhibited from binding to the fibrils. […] The maximum inhibition, a measure of the extent of surface coating of the aggregated peptide by the compounds, was determined to be between 40-98% (Table 4). See P. Inbar, J. Yang, Bioorg. Med. Chem. Lett. 2006, 16:1076-1079; P. Inbar, C. Q. Li, S. A. Takayama, M. R. Bautista, J. Yang, ChemBioChem 2006, 7:1563-1566; P. Inbar, M. R. Bautista, S. A. Takayama, J. Yang, Anal. Chem. 2008, 80:3502-3506. […] Specifically, while the maximum inhibition is between 81-98% for the phenyl compounds, it decreases to 58% for the longer naphthalene compound 11 and to 40% for the more conjugated stilbene 19.
Aggregated Aβ peptides were generated from synthetic Aβ(1-42) peptides by dissolving 30 μg of peptide in 90 μL of nanopure water (pH 5-6) and incubating at 37° C. for ≧72 h without agitation. Each well of a 96-well plate (well volume 0.4 mL; clear, flat bottom polypropylene) was coated for 3 h at 25° C. with 50 μL of 1.3 μM solution of Aβ peptides in phosphate-buffered saline (PBS, 10 mM NaH2PO4/Na2HPO4, 138 mM NaCl, 2.7 mM KCl, pH 7.4). After removal of the excess sample, 50 μL solutions of compounds in PBS buffer (various concentrations were obtained by diluting a stock solution with PBS buffer) were incubated in the wells for 12 h. […] The excess solutions were then removed and all wells were blocked for 30 min by adding 300 μL of a 1% (w/v) solution of bovine serum albumin in PBS buffer (BSA/PBS). On occasion, an additional blocking step was performed prior to incubation with solutions of small molecules. The blocking solution was discarded and the wells were washed once with 300 μL of PBS buffer. Wells were incubated for 1 h with 50 μL of a 1.1 nM solution (in 1% BSA/PBS, dilution 1:6000) of anti-Aβ IgG (clone 6E10, monoclonal, mouse), followed by removal of the solution. The wells were washed twice with 300 μL of PBS buffer and incubated for 60 min with 50 μL of the secondary IgG (anti-mouse IgG H+L, polyclonal, rabbit) conjugated with alkaline phosphatase (6.8 nM in 1% BSA/PBS, dilution 1:1000). The solution was discarded, and the wells were washed twice with 300 μL PBS buffer. Bound secondary IgGs were detected by the addition of 50 μL of a p-nitrophenyl phosphate solution (2.7 mM, in 100 mM diethanol amine/0.5 mM magnesium chloride, pH 9.8). Absorbance intensities were determined at 405 nm using a UV-vis spectroscopic plate reader (Sprectramax 190, Molecular Devices, Sunnyvale, Calif.). Each run was performed five times and averaged. Error bars represent standard deviations. Graphs were plotted and fitted with the sigmoid curve fitting.

[2] = Solubility in aqueous media (observation); type: physicochemical
[3] = biological target: T2, pre-aggregated Aβ(1-42) peptide (Homo sapiens, UniProt P05067); experiment: Apparent binding constant (Kd) by double reciprocal fluorescence plot; settings: compound 10, 5, 2.5, 1.25 μM; 5.0 μM pre-aggregated Aβ(1-42); PBS pH 7.4
T2 construct: preaggregated Aβ(1-42) peptides
Protocol: We also measured the apparent binding constants (Kd) of the compounds (in concentrations of 10, 5, 2.5 and 1.25 μM) to 5.0 μM pre-aggregated Aβ(1-42) peptide. The Kd can be measured from the double reciprocal of the fluorescent maximum and the concentration of the compound. See H. LeVine III, Protein Sci. 1993, 2:404-410. […] [22,] See LeVine, Id.; Lockhart, L. Ye, D. B. Judd, A. T. Merritt, P. N. Lowe, J. L. Morgenstern, G. Z. Hong, A. D. Gee, J. Brown, J. Biol. Chem. 2005, 280:7677-7684; M. Biancalana, K. Makabe, A. Koide, S. Koide, J. Mol. Biol. 2008, 383:205-213; M. Biancalana, K. Makabe, A. Koide, S. Koide, J. Mol. Biol. 2009, 385:1052-1063. The Kd corresponds to the −1/(x-intercept) of the linear regression.
Pre-aggregated Aβ(1-42) (5 μM final concentration) was mixed with various concentrations of compounds described herein (10, 5, 2.5, 1.25 μM) in PBS buffer (pH 7.4) and their fluorescence was measured. The negative inverse of the x-intercept of the linear regression, that was drawn between the double reciprocal of the fluorescence intensity maximum and concentration of the compound, represents the compound binding constant (Kd) to Aβ(1-42).
In order to quantify the dissociation constants (Kd's) for the binding of fluorescent compounds with aggregated β-amyloid peptides, we used the method described by LeVine (see H. LeVine III, Protein Sci. 1993, 2, 404-410). This method is similar to the method described by Benesi-Hildebran (see C. Yang, L. Liu, T. W. Mu, Q. X. Guo, Anal. Sci. 2000, 16, 537-539). Here, the fluorescence of the compound was measured with and without the addition of the aggregated peptides in solution. The relative fluorescence enhancement of the compound upon binding to aggregated β-amyloid peptides was determined by taking the difference between F (fluorescence after the addition of aggregated peptides) and F (fluorescence before the addition of aggregated peptides).
In order to estimate the binding constant (Kd) for the compound-Aβ complexes from the fluorescence studies, we made the following assumptions: • 1. All compounds are completely in solution and free of any significant competing binding process such as self-aggregation. • 2. The concentration of unbound compounds can be approximated as close to the total concentration of the compounds. • 3. The binding sites in the aggregated Aβ peptides are not completely occupied at the concentration of Aβ-binding compounds used for the fluorescence studies (i.e., the experiments are carried out under non-saturated binding conditions).
FIG. 2 and FIG. 6 provide double reciprocal plots of the measured fluorescence versus total concentration of compound [GO]. Assuming that [G] can be approximated as close to [GO] (assumption 2), we can obtain estimates for the Kd's of the compound-Aβ complexes from the x-intercept of the linear fits of the data for each compound.

T1 sequence (P05067 672-713 limits assumed): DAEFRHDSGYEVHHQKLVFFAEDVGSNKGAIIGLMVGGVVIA
T2 sequence (P05067 672-713 limits assumed): as above

IC50 ([1]; 50% inhibition of IgG-Aβ interactions): 33.6 µM
Maximum % inhibition (ELISA) ([1]; maximal percentage of IgG inhibited from binding to the fibrils): 40%
Solubility in aqueous media [2]: poor solubility in aqueous media
Kd [3]: 1.4 µM
Structure (SMILES): COCCOCCOCCOC(=O)/C(C#N)=C/c1ccc(/C=C/c2ccc(N(C)C)cc2)cc1 [Cmpd 19, (E)-2-(2-(2-methoxyethoxyl)ethoxy)ethyl-cyano-3-(4-(4(dimethylamino)styryl)phenyl)acrylate]
